# “And” between values parts separate entries of the source, which are not always exact repeats. Equal entries are not always repeated. “Also recorded” adds a separate entry of the source. Where two headings read alike, the source gives them in different places. Non-standard residues stand in square brackets, D forms with d. Residues, ends and D or L forms follow the SMILES beside them.
# Tests used:
# [1] = system: serum LH and testosterone; test: Kisspeptin-10 stimulated LH and testosterone in intact male rats, icv injections; assay type: in vivo, rat; settings: for LH secretory response to kisspeptin-10 (AUC): 1 nmol icv with 100 pmol kisspeptin-10, 120-min period after co-injection; for testosterone levels vs kisspeptin-10 alone: 60 min after combined injection with kisspeptin-10
# Description: Adult male rats (BW: 280-310 g) bred in the vivarium of the University of Córdoba were used. The animals were maintained under constant conditions of light (14 h of light, from 0700 h) and temperature (22 C), and, before cannula implantation, were kept in groups of four rats per cage with free access to pelleted food and tap water. Experimental procedures were approved by the Córdoba University Ethical Committee for animal experimentation and were conducted in accordance with the European Union normative for care and use of experimental animals.
# The animals were implanted with icy cannulae under light ether anaesthesia and caged individually thereafter. To allow delivery of compounds into the lateral cerebral ventricle, the cannulae were lowered to a depth of 4 mm beneath the surface of the skull; the insert point was 1 mm posterior and 1.2 mm lateral to bregma. Functional tests were conducted at least 24-48 h after cannula implantation.
# Pharmacological tests in intact males involved 5 μl injections at 60 min intervals (icy) of 1 nmol doses of the peptide 234. The last injection was accompanied by the injection of an effective (but sub-maximal) dose of 100 pmol kisspeptin-10 (Phoenix Pharmaceuticals Ltd). Animals injected with vehicle (physiological saline) served as controls. Blood samples (250 μL) were taken by jugular venipuncture at 15- and 60-min following each icy injection. In addition, blood samples were taken immediately before initiation of the experiment (time: 0-min) and at 120-min after last injection (time: 240-min). Experimental procedures and kisspeptin doses were selected on the basis of previous studies (16, 34, 48). For each time-point, 10-12 samples were taken per group.
# Serum LH levels were measured in a volume of 50 μl using a double-antibody method and radioimmunoassay kits supplied by the NIH (Dr. AF Parlow, NIDDK). Rat LH-I-10 was labeled with ^125I using Iodo-Gen precoated tubes, following the instructions of the manufacturer (Pierce), and hormone concentrations were expressed using reference preparation LH-RP-3 as standard. Intra- and inter-assay coefficients of variation were below 8 and 10%, respectively. The sensitivity of the assay was 5 pg/tube. In addition, serum testosterone (T) measurements were selectively conducted in blood samples taken 60-min after co-administration of kp-10 and peptide 234 (Time: 180-min). To this end, a commercial kit from MP Biomedicals was used, following the instructions of the manufacturer. The sensitivity of the assay was 0.1 ng/tube and the intra-assay coefficient of variation was 4.5%. For each hormone, all samples were measured in the same assay. Accuracy of hormone determinations was confirmed by assessment of rat serum samples of known hormone concentrations used as external controls.
# Hormonal determinations were conducted in duplicate, with a minimal total number of 10 samples per group. When appropriate, in addition to individual time-point measurements, integrated LH secretory responses were calculated as the area under the curve (AUC), following the trapezoidal rule. Hormonal data are presented as mean±SEM. Results were analyzed for statistically significant differences using Student t-test or ANOVA followed by Student-Newman-Keuls multiple range test (SigmaStat 2.0). P≦0.05 was considered significant.
# GPR54 = GPR54 (Homo sapiens, UniProt Q969F8); test: Whole cell receptor binding assay, competition with 125I-labelled kisspeptin-10; design: expressed in transfected cells; host or cells: CHO, stably transfected; settings: competition with I125-labelled kisspeptin-10
# GPR54, sequence (Q969F8 whole entry): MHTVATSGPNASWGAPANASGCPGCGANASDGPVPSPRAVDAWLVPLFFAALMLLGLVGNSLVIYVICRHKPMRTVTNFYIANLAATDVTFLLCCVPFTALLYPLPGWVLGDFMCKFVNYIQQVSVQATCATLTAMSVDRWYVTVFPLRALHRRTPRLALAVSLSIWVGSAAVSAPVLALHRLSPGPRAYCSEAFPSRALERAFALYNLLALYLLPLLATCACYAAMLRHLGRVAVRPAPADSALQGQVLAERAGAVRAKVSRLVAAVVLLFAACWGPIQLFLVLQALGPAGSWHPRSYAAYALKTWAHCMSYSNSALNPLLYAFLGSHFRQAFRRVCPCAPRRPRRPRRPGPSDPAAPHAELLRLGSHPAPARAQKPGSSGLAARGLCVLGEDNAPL
# Description: Whole Cell Receptor Binding Assay—Kisspeptin-10 and analogues were prepared at 1:1000 dilutions in HEPES modified Dulbecco's modified Eagle's medium (DMEM) supplemented with ^125I-labelled Kisspeptin to produce 100,000 counts per minute (cpm). Cell monolayers were placed on ice and exposed to 0.5 mls peptide (10 pM-1 uM); the cells were then incubated at 4° C. for 4 hr. After 4 hrs, cells were washed twice with ice cold Dulbecco's phosphate buffered saline (DPBS; with Calcium and Magnesium) and then 0.5 mls 0.1M Sodium Hydroxide (NaOH) were added to cells for 20 minutes, shaking to lyse cells. Lysates were transferred to plastic tubes and bound radioactivity counted on the gamma counter for 60 seconds.
# [2] = system: CHO cells stably expressing human gpr-54; test: Cell migration (wound healing) assay in CHO cells; assay type: cell-based, Chinese hamster
# Description: Human Umbilical Vein Endothelial Cells (HUVECs) isolated from neonatal umbilical cord were used as they endogenously express gpr-54, which is though to be involved in cell migration in the placenta. Chinese hamster ovary (CHO) cells which stably express the human gpr-54 receptor were used as a model cell line for wound healing assays. […] Complete media was added along with 1 nM Kisspeptin-10 for HUVECs and 100 nM Kisspeptin-10 for CHO cells, the optimal concentrations to inhibit cell migration (wound healing) in each cell type, in the presence and absence of antagonist 233, 234, 273 and 276 for HUVECs and 234 for CHOs. […] Cells were photographed on the axiovert 2000 at 20× magnification in phase contrast (Hori et al., 2001. Metastin suppresses the motility and growth of CHO cells transfected with its receptor. Biochem Biophys Res Commun 286, 958-963; Stafford et al., 2002, Identification and characterization of mouse metastasis-suppressor KiSS1 and its G-protein-coupled receptor. Cancer Res 62, 5399-5404).
Compound,serum LH levels ([1]; central injection to vehicle-treated animals at 120 min),Kd (GPR54; binding affinity) [nM],inhibition of cell migration ([2]; 100 nM) [%],LH secretory response to kisspeptin-10 (AUC) [1],LH secretory response to kisspeptin-10 (AUC) ([1]; listed as peptide 234),"basal LH levels ([1]; 1 nmol icv, 15, 60, 75 and 120 min after injection)",testosterone levels vs kisspeptin-10 alone [1],testosterone levels vs kisspeptin-10 alone ([1]; listed as peptide 234),Kd (GPR54; read-out: binding affinity),effect on inhibition of cell migration by 100 nM Kisspeptin ([2]; 22 hrs)
"CC(C)C[C@H](NC(=O)CNC(=O)[C@H](Cc1ccccc1)NC(=O)[C@H](CO)NC(=O)[C@H](CC(N)=O)NC(=O)[C@H](Cc1c[nH]c2ccccc12)NC(=O)[C@H](CC(N)=O)NC(=O)[C@@H](N)Cc1ccc(O)cc1)C(=O)N[C@@H](CCCNC(=N)N)C(=O)N[C@@H](Cc1ccccc1)C(N)=O [Kiss, reference compound]",evoked the expected rise,2,50,,,,,,,
CC(=O)N[C@H](C)C(=O)N[C@@H](CC(N)=O)C(=O)N[C@@H](Cc1c[nH]c2ccccc12)C(=O)N[C@@H](CC(N)=O)C(=O)NCC(=O)N[C@@H](Cc1ccccc1)C(=O)NCC(=O)N[C@H](Cc1c[nH]c2ccccc12)C(=O)N[C@@H](CCCNC(=N)N)C(=O)N[C@@H](Cc1ccccc1)C(N)=O [Peptide 234] (Ac-[dA]NWNGFG[dW]RF-NH2),,,,inhibits; also recorded: blocked,significantly blunted,did not significantly modify,blocked,lower,2 nM and 2.7 nM,completely abolishes

# Source: patent US8916681B2, “Compound, use and method” (Medical Research Council, priority 2007, dated 2014)
